Experimental data reported in PMC11620482, “Phase 1 drug-drug interaction study to assess the effect of CYP3A4 inhibition and pan-CYP induction on the pharmacokinetics and safety of fosmanogepix in healthy participants” (Antimicrobial Agents and Chemotherapy, 2024).
Where two headings read alike, the source gives them in different places.

Assays:
[1] = Plasma pharmacokinetics of MGX and FMGX (noncompartmental analysis), phase 1 fixed-sequence DDI study with itraconazole or rifampin; format: in vivo, human; settings: for Vd: read-out: MGX Vz; for Tmax: median (range)
Protocol: In cohort 1, MGX plasma samples were collected at specified time points daily on days 1–4, once every 2 days on days 6–14, daily for 3 days from days 18 to 20, once every 2 days from days 21 to 29, and then on day 31, while itraconazole samples were collected at specified time points on days 19, 25, and 31. […] PK parameters were calculated using noncompartmental analysis from the plasma concentration-time data for MGX and FMGX. Primary PK parameters were maximum observed plasma concentration (Cmax), AUC from time 0 to infinity (AUC0-inf), and AUC up to time t (AUC0-t, where t was the last time point with concentrations above the lower limit of quantitation). […] Secondary PK parameters were time to attain Cmax (Tmax), AUC from time 0 to 23 hours (AUC0-23), terminal elimination half-life after the last dosing on the day (t1/2), clearance (CL), volume of distribution at terminal phase (Vz), and terminal phase rate constant after the last dosing on the day (λz).

[2] = system: phosphatidylinositol glycan anchor biosynthesis class W (PIGW); set-up: method as in PMID 33105672, PMID 34626339; settings: cited from earlier work
[3] = mice infected with C. albicans and C. glabrata; cited from earlier work
human CYPs = settings: cited from earlier work
CYP1A2 = settings: cited from earlier work
CYP2A6 = settings: cited from earlier work
CYP2B6 = settings: cited from earlier work
CYP2C8 = settings: cited from earlier work
CYP2C9 = settings: cited from earlier work
CYP2C19 = settings: cited from earlier work
CYP2D6 = settings: cited from earlier work
CYP2E1 = settings: cited from earlier work
CYP3A4 = settings: cited from earlier work
[4] = system: recombinant human CYP (rCYP) enzymes; settings: cited from earlier work

Nc1ncccc1-c1cc(Cc2ccc(COc3ccccn3)cc2)no1 [MGX, manogepix]
MGX Vz ([1]; FMGX only 1000 mg BID IV, D1, Cohort 2, n = 17, geometric mean (geometric %CV)): 190 (40.8) L | AUC(0-inf) ([1]; human, in vivo, FMGX 500 mg BID IV D18 + ITR 200 mg QD PO D15-30, Cohort 1, n = 16, geometric mean (geometric %CV), read-out: MGX AUC(0-inf)): 458 µg·h/mL | AUC(0-t) ([1]; human, in vivo, FMGX 500 mg BID IV D18 + ITR 200 mg QD PO D15-30, Cohort 1, n = 16, geometric mean (geometric %CV), read-out: MGX AUC(0-t)): 421 µg·h/mL | Cmax ([1]; human, in vivo, FMGX 500 mg BID IV D18 + ITR 200 mg QD PO D15-30, Cohort 1, n = 16, geometric mean (geometric %CV), read-out: MGX Cmax): 7060 ng/mL | Vd ([1]; human, in vivo, FMGX 500 mg BID IV D18 + ITR 200 mg QD PO D15-30, Cohort 1, n = 16, geometric mean (geometric %CV)): 195 L | AUC(0-inf) ([1]; human, in vivo, FMGX 500 mg BID IV D18 + ITR 200 mg QD PO D15–30, Cohort 1, n = 16, read-out: MGX AUC(0-inf), least squares geometric mean): 458 µg·h/mL | AUC(0-t) ([1]; human, in vivo, FMGX 500 mg BID IV D18 + ITR 200 mg QD PO D15–30, Cohort 1, n = 16, read-out: MGX AUC(0-t), least squares geometric mean): 421 µg·h/mL | Cmax ([1]; human, in vivo, FMGX 500 mg BID IV D18 + ITR 200 mg QD PO D15–30, Cohort 1, n = 16, read-out: MGX Cmax, least squares geometric mean): 7060 ng/mL | AUC(0-inf) ([1]; human, in vivo, FMGX 1,000 mg BID IV D24 + RIF 600 mg QD PO D15–33, Cohort 2, n = 17, geometric mean (geometric %CV), read-out: MGX AUC(0-inf)): 450 µg·h/mL | AUC(0-t) ([1]; human, in vivo, FMGX 1,000 mg BID IV D24 + RIF 600 mg QD PO D15–33, Cohort 2, n = 17, geometric mean (geometric %CV), read-out: MGX AUC(0-t)): 436 µg·h/mL | Cmax ([1]; human, in vivo, FMGX 1,000 mg BID IV D24 + RIF 600 mg QD PO D15–33, Cohort 2, n = 17, geometric mean (geometric %CV), read-out: MGX Cmax): 12100 ng/mL | Vd ([1]; human, in vivo, FMGX 1,000 mg BID IV D24 + RIF 600 mg QD PO D15–33, Cohort 2, n = 17, geometric mean (geometric %CV)): 205 L | AUC(0-inf) ([1]; human, in vivo, FMGX 1,000 mg BID IV D24 + RIF 600 mg QD PO D15–33, Cohort 2, n = 17, read-out: MGX AUC(0-inf), least squares geometric mean): 450 µg·h/mL | AUC(0-t) ([1]; human, in vivo, FMGX 1,000 mg BID IV D24 + RIF 600 mg QD PO D15–33, Cohort 2, n = 17, read-out: MGX AUC(0-t), least squares geometric mean): 436 µg·h/mL | Cmax ([1]; human, in vivo, FMGX 1,000 mg BID IV D24 + RIF 600 mg QD PO D15–33, Cohort 2, n = 17, read-out: MGX Cmax, least squares geometric mean): 12100 ng/mL | half-life ([1]; human, in vivo, Terminal elimination half-life for MGX): ~78 h | AUC(0-inf) ([1]; human, in vivo, iv, 500 mg, FMGX only 500 mg BID IV, D1, Cohort 1, n = 16, geometric mean (geometric %CV), read-out: MGX AUC(0-inf)): 460 µg·h/mL | AUC(0-t) ([1]; human, in vivo, iv, 500 mg, FMGX only 500 mg BID IV, D1, Cohort 1, n = 16, geometric mean (geometric %CV), read-out: MGX AUC(0-t)): 429 µg·h/mL | Cmax ([1]; human, in vivo, iv, 500 mg, FMGX only 500 mg BID IV, D1, Cohort 1, n = 16, geometric mean (geometric %CV), read-out: MGX Cmax): 6940 ng/mL | Vd ([1]; human, in vivo, iv, 500 mg, FMGX only 500 mg BID IV, D1, Cohort 1, n = 16, geometric mean (geometric %CV)): 185 L | AUC(0-inf) ([1]; human, in vivo, iv, 500 mg, FMGX only 500 mg BID IV, D1, Cohort 1, n = 16, read-out: MGX AUC(0-inf), least squares geometric mean): 460 µg·h/mL | AUC(0-t) ([1]; human, in vivo, iv, 500 mg, FMGX only 500 mg BID IV, D1, Cohort 1, n = 16, read-out: MGX AUC(0-t), least squares geometric mean): 429 µg·h/mL | Cmax ([1]; human, in vivo, iv, 500 mg, FMGX only 500 mg BID IV, D1, Cohort 1, n = 16, read-out: MGX Cmax, least squares geometric mean): 6940 ng/mL | clearance ([1]; human, in vivo, iv, 500 mg, MGX CL): 27.7 mL/min | half-life ([1]; human, in vivo, iv, 500 mg, MGX t1/2): 77.3 h | MGX CL ([1]; human, in vivo, iv, 1000 mg): 1,862 (18.5) mL/h | AUC(0-inf) ([1]; human, in vivo, iv, 1000 mg, FMGX only 1000 mg BID IV, D1, Cohort 2, n = 17, geometric mean (geometric %CV), read-out: MGX AUC(0-inf)): 822 µg·h/mL | AUC(0-t) ([1]; human, in vivo, iv, 1000 mg, FMGX only 1000 mg BID IV, D1, Cohort 2, n = 17, geometric mean (geometric %CV), read-out: MGX AUC(0-t)): 772 µg·h/mL | Cmax ([1]; human, in vivo, iv, 1000 mg, FMGX only 1000 mg BID IV, D1, Cohort 2, n = 17, geometric mean (geometric %CV), read-out: MGX Cmax): 13900 ng/mL | AUC(0-inf) ([1]; human, in vivo, iv, 1000 mg, FMGX only 1,000 mg BID IV, D1, Cohort 2, n = 17, read-out: MGX AUC(0-inf), least squares geometric mean): 822 µg·h/mL | AUC(0-t) ([1]; human, in vivo, iv, 1000 mg, FMGX only 1,000 mg BID IV, D1, Cohort 2, n = 17, read-out: MGX AUC(0-t), least squares geometric mean): 772 µg·h/mL | Cmax ([1]; human, in vivo, iv, 1000 mg, FMGX only 1,000 mg BID IV, D1, Cohort 2, n = 17, read-out: MGX Cmax, least squares geometric mean): 13900 ng/mL | half-life ([1]; human, in vivo, iv, 1000 mg, MGX t1/2): 70.7 h | Tmax ([1]; human, in vivo, FMGX 500 mg BID IV D18 + ITR 200 mg QD PO D15-30, Cohort 1, n = 16): 12 h | Tmax ([1]; human, in vivo, FMGX only 500 mg BID IV, D1, Cohort 1, n = 16): 12 h | Tmax ([1]; human, in vivo, FMGX only 1000 mg BID IV, D1, Cohort 2, n = 17): 12 h | Inhibition of PIGW, closest mammalian ortholog of GWT1 [2]: not inhibited | Exposure (AUC) and half-life of MGX after pre-administration of 1-aminobenzotriazole [3]: increase | Reversible inhibition, other CYP isoforms (human CYPs): Weak or no inhibition | Reversible inhibition of CYP1A2 (CYP1A2): observed | Time-dependent inhibition of CYP1A2 (CYP1A2): no time-dependent inhibition | Time-dependent inhibition of CYP2A6 (CYP2A6): no time-dependent inhibition | Reversible inhibition of CYP2B6 (CYP2B6): observed | Time-dependent inhibition of CYP2B6 (CYP2B6): weak time-dependent inhibition | Reversible inhibition of CYP2C8 (CYP2C8): observed | Time-dependent inhibition of CYP2C8 (CYP2C8): no time-dependent inhibition | Reversible inhibition of CYP2C9 (CYP2C9): observed | Time-dependent inhibition of CYP2C9 (CYP2C9): no time-dependent inhibition | Reversible inhibition of CYP2C19 (CYP2C19): observed | Time-dependent inhibition of CYP2C19 (CYP2C19): no time-dependent inhibition | Reversible inhibition of CYP2D6 (CYP2D6): observed | Time-dependent inhibition of CYP2D6 (CYP2D6): no time-dependent inhibition | Time-dependent inhibition of CYP2E1 (CYP2E1): no time-dependent inhibition | Reversible inhibition of CYP3A4 (CYP3A4): observed | Time-dependent inhibition of CYP3A4 (CYP3A4): weak time-dependent inhibition | Enzymes involved in formation of MGX-derived metabolites [4]: multiple recombinant human CYP (rCYP) enzymes were involved
